In the first assay the test system is PKC (rat brain mixture). The experiment in a line: PKC inhibition assay (protocol of Kikkawa, [γ-32P]ATP, histone). It counts as biochemical. The conditions noted are these: rat brain mixture of PKC isoforms. The procedure:
Our initial analogs were tested for inhibition of PKC[37],[38] (rat brain mixture) due to its clinical significance and our on-going and complementary work on PKC activators.[7b],[16],[26]
Simplified analog 19 was tested in the PKC inhibition assay using the rat brain mixture of PKC isoforms. […]. Computational docking[42] of the energy-minimized conformer of 19 in the computer-simulated ATP-binding pocket of PKCα (Fig. 3) illustrates the conserved hydrogen bonds between the maleimide and hinge region residues and the shape complementarity of the ligand with the pocket.
A PKC inhibition assay was performed following the protocol developed by Kikkawa and coworkers.5 The assay can be scaled as desired. Histone solution (0.33 mg/mL in 20 mM Tris buffer) was prepared from a stock solution (33 mg/mL, stored frozen). Phosphatidylserine (PS) vesicles were prepared by the addition of PS (10 mg/mL in chloroform, 240 µL) and dioleoylglycerol (10 mg/mL in ethanol, 40 µL) to a glass vial followed by removal of the chloroform under a stream of nitrogen. To the neat PS was added chilled 20 mM Tris assay buffer (2 mL) and the resulting mixture was sonicated (Branson Sonifier 250, power = 3, 30% duty cycle) four times for 30 sec with a 30 sec interval between sonications. The resulting milky suspension was stored on ice. "Stop" solution refers to a solution of 200 mM EDTA and 200 mM ATP in 20 mM Tris buffer.
Whatman filter papers were cut in 1 x 1 inches in dimension and labeled with tube number in pencil. An "Autogo" solution was prepared by mixing 27 µL of 3.75 mM ATP (in 20 mM Tris), 100 µL of 1.0 M MgCl2, 872 µL of 20 mM Tris buffer, and 1.3 µL of [γ-32P] ATP (total volume is 1 mL). "Autogo" solution should be kept in the hot hood all the time. "Cocktail 1" was prepared by mixing 70 µL of 10 mM Ca2+, 350 µL of 20 mM Tris, and 70 µL of histone solution (0.33 mg/mL in 20mM Tris). "Cocktail 2" was prepared by mixing 310 µL of 10 mM Ca2+, 930 µL of 20 mM Tris, 310 µL of the histone solution, and 310 µL of the PS solution (added only once the assay is ready to be run).
To each eppendorf tube, 10 µL of PKC solution and10 µL of the inhibitor solution were added. After addition of the inhibitor, each tube was vortexed. For negative controls, 70 µL of cocktail 1 was added to tubes 1 and 2. To the rest of the tubes were added 60 µL of cocktail 2. All the tubes were then transferred to the hot hood, and 20 µL of "Autogo" solution was added to each tube and vortexed immediately. A start countdown of 7 min was initiated when "Autogo" was added to the first tube. Addition to all the tubes should be completed within 7 min. When the countdown is over, "Stop" solution was added to each tube and vortexed. The interval between the addition of "Autogo" and "Stop" solution should be 7 min for each tube.
Contents of each tube was transferred to the piece of pre-labeled Whatman filter paper and the paper was washed by soaking them and swirling in a beaker filled with 300 mL of tap water. Once all the filter papers are soaked in the beaker, the supernatant was carefully drained (to the hot hood drain) and the papers were rinsed by soaking them in 300 mL of fresh tap water for 2 min. The water was decanted, and the papers were rinsed by soaking them in 300 mL of ethanol for 2 min. The ethanol should be recovered to a bottle in the hot hood (not to the drain). The papers were dried in the hot hood and each paper was transferred to a scintillation vial. The radiation was measured with the scintillation counter (Beckman LS 6000SC). The data set was analyzed using a least-square data-fitting algorithm in Prism 4 (Graphpad Software Inc.) to give an IC50 value (defined as the concentration of analogue required to inhibit 50% of PKC activity).
By IC50 is commonly meant the concentration at which inhibition is half-maximal. Consider `CN(C)C1CCc2c3c(c4c5ccccc5n(CCCN)c4c2CC1)C(=O)NC3=O` (centres unmarked) [Compound 14], for which the IC50 worked out at 1600 nM.

Regarding `CN(C)C1CCc2c(CC3CCNCC3)cc3c(c2CC1)C(=O)NC3=O` (centres unmarked) [Compound 19], the IC50 turned out to be 13 nM.

On to `NCCCn1c2ccc(Cl)cc2c2c3c(c4c(c21)CCC(O)CC4)C(=O)NC3=O` (centres unmarked) [Compound 10], for which the IC50 is 2600 nM.

Consider `CN(C)C1CCc2c3c(c4c5cc(Cl)ccc5n(CCCN)c4c2CC1)C(=O)NC3=O` (centres unmarked) [Compound 13], for which the IC50 was determined as 2900 nM.

For `NCCCn1c2ccc(Cl)cc2c2c3c(c4c(c21)CCC(N)CC4)C(=O)NC3=O` (centres unmarked) [Compound 11], the IC50 was 12500 nM.

As to `CNC1CCc2c3c(c4c5cc(Cl)ccc5n(CCCN)c4c2CC1)C(=O)NC3=O` (centres unmarked) [Compound 12], the IC50 worked out at 14100 nM.

The next assay deals with PKCβ.
Assay: not given
The conditions noted are these: cited from earlier work.
Take `CN(C)C[C@@H]1CCn2cc(c3ccccc32)C2=C(C(=O)NC2=O)c2cn(c3ccccc23)CCO1` [ruboxistaurin]: the “selectivity for PKCβ over PKCα” value was 60 fold.

Turning to `Cn1cc(C2=C(c3cn(C4CCN(Cc5ccccn5)CC4)c4ccccc34)C(=O)NC2=O)c2ccccc21` [enzastaurin], the “selectivity for PKCβ over PKCα” value is recorded as 26 fold.

The values above are taken from PMC4304288, “Function through bio-inspired, synthesis-informed design: step-economical syntheses of designed kinase inhibitors” (Organic Chemistry Frontiers, 2014).
